Values after ≈ are worked out from the molar mass of the structure shown. Like-named read-outs stand apart in the source and are kept apart here.
Experiments:
[1] = cited from earlier work
[2] = Solubility of pharmaceutical actives in Diethylene glycol monoethyl ether; settings: for solubility: Diethylene glycol monoethyl ether, organic solvent or mixture, Solubility in Diethylene Glycol Monoethyl Ether
[3] = cited from earlier work; for half-life: in vivo
physchem [4] = settings: organic solvent or mixture, Solubility in Diethylene Glycol Monoethyl Ether
[5] = Viscosity of formulations prepared in Diethylene glycol monoethyl ether and of comparators; type: physicochemical; settings: final solution/formulation; marketed comparators
physchem [6] = settings: organic solvent or mixture
Procedure: Progesterone is dissolved in solution of 20% Benzyl alcohol giving a clear solution and add Diethylene glycol monoethyl ether with constant stirring and make the volume up to 100 ml with Diethylene glycol monoethyl ether. […] This solution is filled in 3 ml clear glass vial.

CCOC1O[C@@H]2O[C@@]3(C)CC[C@H]4[C@H](C)CC[C@@H]([C@H]1C)[C@@]24OO3 (mixture of isomers) [Arteether, 10-Ethoxydecahydro-3,6,9-trimethyl-3,12-epoxy-12H-pyrano[4,3-j]-1,2-benzodioxepin]
Solubility in water (descriptive) [1]: quite water insoluble
Solubility in Diethylene Glycol Monoethyl Ether [2]: 80 mg/mL (≈ 256 mM)

COCCCOc1ccnc(C[S+]([O-])c2nc3ccccc3[nH]2)c1C (racemic) [Rabeprazole, (RS)-2-([4-(3-methoxypropoxy)-3-methylpyridin-2-yl]methylsulfinyl)-1H-benzo[d]imidazole]
Solubility in water (descriptive) [1]: insoluble
bioavailability ([3]; enteric coated tablet): 51%

CCN1CCCC1CNC(=O)c1cc(S(=O)(=O)CC)c(N)cc1OC (stereo not shown) [Amilsulpride]
Solubility in water (descriptive) [1]: Practically insoluble in water, sparingly soluble in ethanol, soluble in methanol and freely soluble in dichloromethane
solubility [2]: 25 mg/mL (≈ 67.7 mM)

CO[C@H]1O[C@@H]2O[C@@]3(C)CC[C@H]4[C@H](C)CC[C@@H]([C@H]1C)[C@@]24OO3 [Artemether, (+)-(3-alpha,5a-beta,6-beta,8a-beta, 9-alpha,12-beta,12aR)-decahydro-10-methoxy-3,6,9-trimethyl-3,12-epoxy-12H-pyrano(4,3-j)-1,2-benzodioxepin]
Solubility in water (descriptive) [1]: practically insoluble
solubility [2]: 100 mg/mL (≈ 335 mM)

CCN[C@H]1CN(CCCOC)S(=O)(=O)c2sc(S(N)(=O)=O)cc21 [Brinzolamide]
solubility (physchem [4]): 55.6 mg/mL (≈ 145 mM)

Cc1ccc(-c2cc(C(F)(F)F)nn2-c2ccc(S(N)(=O)=O)cc2)cc1 [Celecoxib]
solubility in DMSO [1]: 200 mg/mL (≈ 524 mM)
solubility in ethanol [1]: 100 mg/mL (≈ 262 mM)
Solubility in water (descriptive) [1]: very poorly soluble
solubility [2]: 71.4 mg/mL (≈ 187 mM)

C[C@H]1O[C@@H](O[C@H]2[C@@H](O)C[C@H](OC3CC[C@@]4(C)[C@H](CC[C@@H]5[C@@H]4C[C@@H](O)[C@]4(C)[C@@H](C6=CC(=O)OC6)CC[C@]54O)C3)O[C@@H]2C)C[C@H](O)C1OC1C[C@H](O)[C@H](O)[C@@H](C)O1 (stereo partly drawn) [Digoxin, (3β, 5β,12β)-3-[(O-2,6-dideoxy-β-D-ribo-hexopyranosyl-(1→4)-O-2,6-dideoxy-β-D-ribo-hexopyranosyl-(1→4)-2,6-dideoxy-β-D-ribo-hexopyranosyl)oxy]-12,14-dihydroxy-card-20(22)-enolide]
half-life [3]: about 36 hours

CC(=O)O[C@@]12CO[C@@H]1C[C@H](O)[C@@]1(C)C(=O)[C@H](O)C3=C(C)[C@@H](OC(=O)[C@H](O)[C@@H](NC(=O)OC(C)(C)C)c4ccccc4)C[C@@](O)([C@@H](OC(=O)c4ccccc4)[C@H]21)C3(C)C [Docetaxel, 1,7β,10β-trihydroxy-9-oxo-5β,20-epoxytax-11-ene-2α,4,13α-triyl 4-acetate 2-benzoate 13-{(2R,3S)-3-[(tert-butoxycarbonyl)amino]-2-hydroxy-3-phenylpropanoate}]
Solubility in water (descriptive) [1]: practically insoluble
solubility [2]: 55 mg/mL (≈ 68.1 mM)

COc1cc([C@@H]2c3cc4c(cc3[C@@H](O[C@@H]3O[C@@H]5CO[C@@H](C)O[C@H]5[C@H](O)[C@H]3O)[C@H]3COC(=O)[C@H]23)OCO4)cc(OC)c1O [Etoposide, 4′-demethylepipodophyllotoxin 9-[4,6-0-(R)-ethylidene-β-D-glucopyranoside]]
solubility (physchem [4]): 30 mg/mL (≈ 51 mM)
Solubility in water (descriptive) [1]: sparingly soluble

C[C@]12CC[C@@H]3c4ccc(O)cc4C[C@@H](CCCCCCCCC[S+]([O-])CCCC(F)(F)C(F)(F)F)[C@H]3[C@@H]1CC[C@@H]2O (stereo partly drawn) [Fulvestrant, 7-alpha-[9-(4,4,5,5,5-pentafluoropentylsulphinyl)nonyl]estra-1,3,5-(10)-triene-3,17beta-diol]
Solubility in water (descriptive) [1]: practically insoluble
solubility [2]: 58.8 mg/mL (≈ 96.9 mM)

O=C(CCCN1CCC(O)(c2ccc(Cl)cc2)CC1)c1ccc(F)cc1 [Haloperidol, 4-[4-(p-chlorophenyl)-4-hydroxypiperidino]-4′-fluorobutyrophenone]
solubility (physchem [4]): 8.3 mg/mL (≈ 22.1 mM)
solubility in water [1]: 1.4 mg/100 ml
solubility in 0.1 N hydrochloric acid ([1]; with heating): 3 mg/mL (≈ 7.98 mM)

CCOC(=O)O[C@]1(C(=O)OCCl)CC[C@H]2[C@@H]3CCC4=CC(=O)C=C[C@]4(C)[C@H]3[C@@H](O)C[C@@]21C [Loteprednol]
solubility (physchem [4]): 25 mg/mL (≈ 53.5 mM)
solubility in water [1]: 8 μg per 1t

NC(=O)Cc1cccc(C(=O)c2ccccc2)c1N [Nepafenac]
solubility [2]: ≤ 2 mg/mL

CC(=O)O[C@H]1C(=O)[C@@]2(C)[C@H]([C@H](OC(=O)c3ccccc3)[C@]3(O)CC(OC(=O)[C@H](O)[C@@H](NC(=O)c4ccccc4)c4ccccc4)C(C)=C1C3(C)C)[C@]1(OC(C)=O)CO[C@@H]1C[C@@H]2O (stereo partly drawn) [Paclitaxel, (2α,4α,5β,7β,10β,13α)-4,10-bis(acetyloxy)-13-{[(2R,3S)-3-(benzoylamino)-2-hydroxy-3-phenylpropanoyl]oxy}-1,7-dihydroxy-9-oxo-5,20-epoxytax-11-en-2-yl benzoate]
solubility (physchem [4]): 23.8 mg/mL (≈ 27.9 mM)
Solubility in water (descriptive) [1]: insoluble

COc1ccnc(C[S+]([O-])c2nc3ccc(OC(F)F)cc3[nH]2)c1OC (stereo not shown) [Pantoprazole]
Solubility in Diethylene Glycol Monoethyl Ether [2]: 80 mg/mL (≈ 209 mM)

CN1C(C(=O)Nc2ccccn2)=C(O)c2ccccc2S1(=O)=O [Piroxicam, (8E)-8-[hydroxy-(pyridin-2-ylamino)methylidene]-9-methyl-10,10-dioxo-10λ6-thia-9-azabicyclo[4.4.0]deca-1,3,5-trien-7-one]
Viscosity [5]: 3.365 cps

CC(=O)[C@H]1CC[C@H]2[C@@H]3CCC4=CC(=O)CC[C@]4(C)[C@H]3CC[C@]12C [Progesterone, pregn-4-ene-3,20-dione]
solubility (physchem [6]): ≤ 100 mg/mL
solubility in water ([1]; at 19° C.): < 0.1 g/100 ml
Solubility in water (descriptive) [1]: insoluble

CC(C)c1cccc(C(C)C)c1O [Propofol, 2,6-diisopropylphenol]
Viscosity [5]: less than 5 cps

CCCCC[C@H](O)/C=C/[C@H]1[C@H](O)CC(=O)[C@@H]1CCCCCCC(=O)O [Prostaglandin E1 (Alprostadil), (11α,13E,15S)-11,15-dihydroxy-9-oxoprost-13-en-1-oic acid]
solubility (physchem [4]): 50 mg/mL (≈ 141 mM)
solubility in double distilled water ([1]; at 35° C.): 8000 micrograms per 100 milliliter

CN(C/C=C/C#CC(C)(C)C)Cc1cccc2ccccc12 [Terbinafine, [(2E)-6,6-dimethylhept-2-en-4-yn-1-yl](methyl)(naphthalen-1-ylmethyl)amine]
Solubility in water (descriptive) [1]: slightly soluble
solubility [2]: 16.7 mg/mL (≈ 57.2 mM)

C[C@]12CC[C@H]3[C@@H](CCC4=CC(=O)CC[C@@]43C)[C@@H]1CC[C@@H]2OC(=O)CCC1CCCC1 [Testosterone Cypionate, androst-4-en-3-one, 17-(3-cyclopentyl-1-oxopropoxy)-, (17β)-]
Viscosity [5]: less than 7 cps
solubility (physchem [4]): 50 mg/mL (≈ 121 mM)

CCCCCCC(=O)O[C@H]1CC[C@H]2C3CCC4=CC(=O)CCC4(C)[C@H]3CCC12C (stereo partly shown) [Testosterone Enanthate, Testosterone enanthate]
solubility (physchem [4]): 55.5 mg/mL (≈ 139 mM)
Solubility in water (descriptive) [1]: insoluble

C[C@]12CC[C@H]3[C@@H](CCC4=CC(=O)CC[C@@]43C)[C@@H]1CC[C@@H]2O [Testosterone]
Solubility in water (descriptive) [1]: practically insoluble
half-life [3]: 2 to 4 h

NC[C@H]1O[C@H](O[C@H]2[C@H](O)[C@@H](O[C@H]3O[C@H](CO)[C@@H](O)[C@H](N)[C@H]3O)[C@H](N)C[C@@H]2N)[C@H](N)C[C@@H]1O [Tobramycin]
Solubility in water (descriptive) [1]: Soluble
solubility [2]: 3 mg/mL (≈ 6.42 mM)

CC1(C)O[C@@H]2C[C@H]3[C@@H]4CCC5=CC(=O)C=C[C@]5(C)[C@@]4(F)[C@@H](O)C[C@]3(C)[C@]2(C(=O)CO)O1 [Triamcinolone Acetonide, 9-Fluoro-11β,16α,17,21-tetrahydroxypregna-1,4-diene-3,20-dione cyclic 16,17acetal with acetone]
Solubility in water (descriptive) [1]: practically insoluble

CCOC(=O)C1=C[C@]2(CC)CCCN3CCc4c(n1c1ccccc41)[C@@H]32 [Vinpocetine]
Solubility in water (descriptive) [1]: Soluble in DMSO, DMF, ethanol, acetic acid, acetone, and chloroform. Insoluble in water.
solubility [2]: 12 mg/mL (≈ 34.2 mM)

C[C@@H](c1ncncc1F)[C@](O)(Cn1cncn1)c1ccc(F)cc1F [Voricanozole, (2R,3S)-2-(2,4-difluorophenyl)-3-(5-fluoropyrimidin-4-yl)-1-(1H-1,2,4-triazol-1-yl)butan-2-ol]
Viscosity [5]: 2.977 cps

C[C@H]1[C@H](OC(=O)CCC(=O)[O-])O[C@@H]2O[C@@]3(C)CC[C@H]4[C@H](C)CC[C@@H]1[C@@]24OO3.[Na+] [sodium Artesunate]
Solubility in water (descriptive) [1]: soluble

(3R,4S,5S,6R,7R,9R,11R,12R,13S,14R)-4-[(2,6-Dideoxy-3-C-methyl-3-O-methyl-a-L-ribo-hexopyranosyl)oxy]-14-ethyl-12,13-dihydroxy-7-methoxy-3,5,7,9,11,13-hexamethyl-6-[[3,4,6-trideoxy-3-(dimethylamino)-b-D-xylo-hexopyranosyl]oxy]oxacyclotetradecane-2,10-dione [Clarithromycin]
Solubility in water (descriptive) [1]: insoluble

(3R,4S,5S,6R,7R,9R,11S,12R,13S,14S)-6-{[(2S,3R,4S,6R) -4-(dimethylamino)-3-hydroxy-6-methyloxan-2-yl]oxy}-14-ethyl-12,13-dihydroxy-4-{[(2R,4S,5S,6S)-5-hydroxy-4-methoxy-4,6-dimethyloxan-2-yl]oxy}-7-methoxy-3,5,7,9,11,13-hexamethyl-1-oxacyclotetradecane-2,10-dione [Azithromycin]
Solubility in water (descriptive) [1]: practically insoluble

Rimexolone
Solubility in water (descriptive) [1]: Very slightly soluble in water; freely soluble in chloroform; soluble in ethyl acetate and in methanol

Tacrolimus
Solubility in water (descriptive) [1]: Insoluble in water, freely soluble in ethanol, and very soluble in methanol and chloroform.

Source: patent publication US9827315B2, “Compositions of pharmaceutical actives containing diethylene glycol monoethyl ether or other alkyl derivatives” (THEMIS MEDICARE LIMITED, priority 2013, dated 2017)
